In patent US5234947A, “Potassium channel activating compounds and methods of use thereof” (New York University, priority 1991, dated 1993):
“Also recorded” adds a separate entry of the source.

What was measured:
potassium channel = potassium channel activation (method not described); type: biochemical
craving for a cigarette = type: in vivo; settings: cigarette smoking
Text: The interference with the effects of withdrawal symptoms from addictive substances of the subject compounds is also consistent with potassium channel activation. […] As one gets a craving for a cigarette, there is a perception of muscular tension. The effects of potassium channel activators are to lower the blood pressure, relax the muscles and make breathing easier, all of which counteracts the feeling of craving one experiences upon withdrawal from an addictive substance.

[1] = molecular target: T1, large 200-220 pS channel (large Ca++-dependent K+ channel) (Rattus norvegicus, UniProt Q62976); assay: lipid bilayer technique, rat brain membranes fused with a bilayer on a patch-clamp pipette; type: biochemical
T1 construct: single-channel recording
T1 sequence (Q62976 whole entry, the tested form may be a part): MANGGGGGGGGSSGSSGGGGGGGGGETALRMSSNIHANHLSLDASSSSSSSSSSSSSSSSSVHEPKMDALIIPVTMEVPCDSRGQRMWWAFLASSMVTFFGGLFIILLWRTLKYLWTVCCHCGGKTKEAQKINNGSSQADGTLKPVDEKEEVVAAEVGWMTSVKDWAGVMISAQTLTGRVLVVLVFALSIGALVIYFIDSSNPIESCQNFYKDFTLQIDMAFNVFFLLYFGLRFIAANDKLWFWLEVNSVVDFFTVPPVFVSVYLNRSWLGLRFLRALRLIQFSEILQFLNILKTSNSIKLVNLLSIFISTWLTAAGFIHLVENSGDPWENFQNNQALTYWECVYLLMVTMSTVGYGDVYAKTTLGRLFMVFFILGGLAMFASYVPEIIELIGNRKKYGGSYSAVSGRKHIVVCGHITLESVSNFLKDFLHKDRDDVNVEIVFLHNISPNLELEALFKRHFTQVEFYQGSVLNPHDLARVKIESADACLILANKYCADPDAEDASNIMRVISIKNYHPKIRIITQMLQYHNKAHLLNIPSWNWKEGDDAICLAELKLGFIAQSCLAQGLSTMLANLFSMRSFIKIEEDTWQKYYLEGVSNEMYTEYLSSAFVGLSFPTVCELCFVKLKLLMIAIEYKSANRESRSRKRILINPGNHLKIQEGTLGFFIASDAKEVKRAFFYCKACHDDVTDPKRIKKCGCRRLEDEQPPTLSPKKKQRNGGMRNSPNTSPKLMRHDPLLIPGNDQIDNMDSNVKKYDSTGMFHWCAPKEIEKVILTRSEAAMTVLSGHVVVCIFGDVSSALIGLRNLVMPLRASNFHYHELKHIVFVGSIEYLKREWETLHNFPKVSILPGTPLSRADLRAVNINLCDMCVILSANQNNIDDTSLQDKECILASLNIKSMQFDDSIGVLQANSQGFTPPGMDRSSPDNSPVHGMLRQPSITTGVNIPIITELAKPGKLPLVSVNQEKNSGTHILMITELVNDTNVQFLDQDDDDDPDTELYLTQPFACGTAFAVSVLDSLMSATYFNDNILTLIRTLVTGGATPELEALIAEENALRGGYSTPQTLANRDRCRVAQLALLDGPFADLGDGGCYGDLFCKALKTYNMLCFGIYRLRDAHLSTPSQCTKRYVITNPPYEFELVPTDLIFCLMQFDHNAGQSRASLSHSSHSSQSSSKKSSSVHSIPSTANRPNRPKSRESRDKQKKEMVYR
Description: Isolated avena pyrone was studied for its action against ionic channels in cell membranes using the lipid bilayer technique. Membranes from rat brain were fused with a lipid bilayer formed across the opening of a patch-clamp pipette. Electrical activity was monitored using an Axon Instruments Axopatch amplifier using 100 mM symmetrical KCl solutions. In the presence of elevated levels of calcium, at least three types of potassium channel can be determined: a small 25-50 pS channel, a 90-120 pS channel, and a large 200-220 pS channel. In the absence of calcium in the bathing solutions, openings of the large 200 pS channel are rarely seen.
FIGS. 1 and 2 show the exposure of the channels to potassium in the presence of avena pyrone. In the two tracings in FIG. 1, the membrane potential was held at -25 mV. Under these conditions, the mid-sized K^+ channel is very active but the large channel is rarely open during the approximately 1.5 seconds shown. […] The effect is most pronounced under low calcium conditions.

SMILES | potassium channel activation (potassium channel) | craving for a cigarette (craving for a cigarette) | activation of the large K+ channel ([1]; absence of calcium / low calcium, 100 mM symmetrical KCl, membrane potential -25 mV) | open times of the large channel ([1]; avena pyrone added to the bath, -25 mV) | open probability of the large channel ([1]; avena pyrone added to the bathing solution) | activation of the large channel ([1]; conditions of greater calcium concentration)
COC1=CC(=O)O[C@@H](/C=C/c2ccccc2)C1 [kawain] | potassium channel activating substance |  |  |  |  | 
CC1CCCC(=O)O1 (stereo not drawn) [avena pyrone, 2H-6-methyltetrahydropyran-2-one] |  | reduce the craving for a cigarette | activation of the large K^+ channel is seen; also recorded: the large channel was activated | very long open times; also recorded: increased from a few milliseconds to times approaching seconds | increased open probability; also recorded: substantially increasing the open probability | still capable of activation of the channel but to a lesser degree
